Data on 74 compounds can be found in ChEMBL document CHEMBL1144272, “Generation of a new class of hNK(2) receptor ligands using the 'fragment approach'” (Bioorg Med Chem Lett, 2005).

In this test the target is T1, Substance-K receptor (Homo sapiens, UniProt P21452).
T1 sequence (P21452 whole entry): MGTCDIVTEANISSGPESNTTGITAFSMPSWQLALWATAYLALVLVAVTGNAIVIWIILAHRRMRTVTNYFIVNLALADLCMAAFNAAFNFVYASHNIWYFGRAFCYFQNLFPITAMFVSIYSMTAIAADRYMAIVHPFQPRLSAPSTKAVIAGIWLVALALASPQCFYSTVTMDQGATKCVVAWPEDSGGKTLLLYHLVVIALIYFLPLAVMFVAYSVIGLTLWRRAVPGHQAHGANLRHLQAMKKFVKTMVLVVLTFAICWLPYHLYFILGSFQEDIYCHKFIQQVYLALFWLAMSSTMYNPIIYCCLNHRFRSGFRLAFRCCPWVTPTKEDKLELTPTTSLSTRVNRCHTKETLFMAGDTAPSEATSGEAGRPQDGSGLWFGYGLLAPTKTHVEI
As to the kind of experiment: Binding affinity for human tachykinin receptor 2 was measured by using [125I]NKA as radio ligand.
Usually Ki stands for a dissociation constant, usually derived from enzyme kinetics or from competition with a known ligand. Read a high Ki as weaker binding. Take `CC(C)(Oc1ccc(-c2ccccc2)cc1)C(=O)N[C@@H](Cc1ccccc1)C(=O)NCCCN1CCOCC1`: the Ki stood at 7900 nM.

`COc1cc(COc2ccc(NC(=O)N[C@H](Cc3ccccc3)C(=O)NCCCN3CCOCC3)cc2)cc(OC)c1` displayed a Ki above 1000 nM.

The compound `Cc1ccc(COc2ccc(NC(=O)N[C@@H](Cc3ccccc3)C(=O)NCCCN3CCOCC3)cc2)cc1` had an inhibition constant Ki of 790 nM.

In turn, `CC(C)c1ccc(OC(C)(C)C(=O)N[C@H](Cc2ccccc2)C(=O)NCCCN2CCOCC2)cc1` yielded a Ki above 1000 nM.

As for `CC(C)c1ccc(OC(C)(C)C(=O)N[C@@H](Cc2ccccc2)C(=O)NCCCN2CCOCC2)cc1`, the Ki was above 1000 nM.

`O=C(Nc1ccc(OCc2cc(F)cc(F)c2)cc1)N[C@@H](Cc1ccccc1)C(=O)NCCCN1CCOCC1`: affinity was put at a Ki of 500 nM.

In turn, `CN(C(=O)N[C@@H](Cc1ccccc1)C(=O)NCCCN1CCOCC1)c1ccc(Oc2ccccc2)cc1` gave a Ki above 3000 nM.

`CN(C(=O)N[C@H](Cc1ccccc1)C(=O)NCCCN1CCOCC1)c1ccc(Oc2ccccc2)cc1` came in with an inhibition constant Ki above 3000 nM.

Take `CC(C)(Oc1cccc(-c2ccccc2)c1)C(=O)N[C@H](Cc1ccccc1)C(=O)NCCCN1CCOCC1`: the affinity corresponds to a Ki of 10000 nM.

On to `CN(C(=O)N[C@@H](Cc1ccccc1)C(=O)NCCCN1CCOCC1)c1cccc(Oc2ccccc2)c1`, for which the inhibition constant (Ki) is above 3000 nM.

In turn, `CC(C)(C)c1ccc(Oc2ccc(NC(=O)N[C@@H](Cc3ccccc3)C(=O)NCCCN3CCOCC3)cc2)cc1` displayed a Ki of 50 nM.

For `CC(C)(Nc1ccccc1)C(=O)N[C@H](Cc1ccccc1)C(=O)NCCCN1CCOCC1`, the Ki is above 3000 nM.

Consider `CC(C)(C)c1ccc(Oc2ccc(NC(=O)N[C@H](Cc3ccccc3)C(=O)NCCCN3CCOCC3)cc2)cc1`, for which the affinity, expressed as Ki, was 120 nM.

The compound `CN(C(=O)N[C@H](Cc1ccccc1)C(=O)NCCCN1CCOCC1)c1cccc(Oc2ccccc2)c1` came in with a Ki above 3000 nM.

As to `O=C(N[C@@H](Cc1ccccc1)C(=O)NCCCN1CCOCC1)C(c1ccccc1)c1ccccc1`, affinity was put at a Ki of 2000 nM.

As to `O=C(Nc1ccc(OCc2cc(F)cc(F)c2)cc1)N[C@H](Cc1ccccc1)C(=O)NCCCN1CCOCC1`, the Ki was above 1000 nM.

Consider `O=C(Nc1ccc(Oc2cccc(F)c2)cc1)N[C@@H](Cc1ccccc1)C(=O)NCCCN1CCOCC1`, for which the Ki is 200 nM.

`O=C(Nc1ccc(Sc2ccc(F)cc2)cc1)N[C@@H](Cc1ccccc1)C(=O)NCCCN1CCOCC1` gave a Ki of 130 nM.

The compound `O=C(Nc1ccc(Oc2ccc(F)cc2)cc1)N[C@@H](Cc1ccccc1)C(=O)NCCCN1CCOCC1` came in with a Ki of 16 nM.

On to `CCc1ccc(Oc2ccc(NC(=O)N[C@@H](Cc3ccccc3)C(=O)NCCCN3CCOCC3)cc2)cc1`, for which the Ki turned out to be 200 nM.

`O=C(Nc1ccc(Oc2ccc(F)cc2)cc1)N[C@H](Cc1ccccc1)C(=O)NCCCN1CCOCC1` yielded a Ki above 310 nM.

On to `O=C(Nc1ccc(Oc2ccccc2)cc1)N[C@H](Cc1ccccc1)C(=O)NCCCN1CCOCC1`, for which the affinity, expressed as Ki, was 500 nM.

Consider `O=C(N[C@H](Cc1ccccc1)C(=O)NCCCN1CCOCC1)c1cccc(-c2ccccc2)c1`, for which the Ki was above 10000 nM.

Turning to `O=C(NCCCN1CCOCC1)[C@H](Cc1ccccc1)NC(=O)N1CCCC(O)(c2ccccc2)C1` (some centres undefined), affinity was put at a Ki of 6300 nM.

The compound `O=C(Nc1cccc(Oc2ccccc2)c1)N[C@H](Cc1ccccc1)C(=O)NCCCN1CCOCC1` showed a Ki of 300 nM.

With `CC(C)(Nc1ccccc1Oc1ccccc1)C(=O)N[C@@H](Cc1ccccc1)C(=O)NCCCN1CCOCC1`, the Ki was above 3000 nM.

The compound `O=C(N[C@@H](Cc1ccccc1)C(=O)NCCCN1CCOCC1)c1cccc(-c2ccccc2)c1` displayed a Ki of 2000 nM.

Compound `O=C(Nc1ccc(OCc2cccc(Cl)c2)cc1)N[C@H](Cc1ccccc1)C(=O)NCCCN1CCOCC1` yielded a Ki of 630 nM.

For `O=C(Nc1ccc(OCc2cccc(Cl)c2)cc1)N[C@@H](Cc1ccccc1)C(=O)NCCCN1CCOCC1`, the Ki is 320 nM.

In turn, `O=C(Nc1ccc(Oc2ccc(OC(F)(F)F)cc2)cc1)N[C@@H](Cc1ccccc1)C(=O)NCCCN1CCOCC1` gave a Ki above 100 nM.

For the compound `O=C(N[C@H](Cc1ccccc1)C(=O)NCCCN1CCOCC1)c1ccccc1`, the Ki was above 10000 nM.

Regarding `CC(C)(Oc1ccc(Cl)cc1)C(=O)N[C@H](Cc1ccccc1)C(=O)NCCCN1CCOCC1`, the Ki worked out at 600 nM.

`CCc1ccc(Oc2ccc(NC(=O)N[C@H](Cc3ccccc3)C(=O)NCCCN3CCOCC3)cc2)cc1` registered a Ki of 630 nM.

As to `O=C(Nc1ccc(Sc2ccc(F)cc2)cc1)N[C@H](Cc1ccccc1)C(=O)NCCCN1CCOCC1`, the Ki was above 200 nM.

Compound `CC(C)(Oc1ccccc1-c1ccccc1)C(=O)N[C@H](Cc1ccccc1)C(=O)NCCCN1CCOCC1` returned a Ki of 5000 nM.

Compound `O=C(N[C@@H](Cc1ccccc1)C(=O)NCCCN1CCOCC1)c1ccccc1` came in with a Ki above 10000 nM.

For the compound `CC(C)(Oc1ccc(C(F)(F)F)cc1)C(=O)N[C@H](Cc1ccccc1)C(=O)NCCCN1CCOCC1`, the inhibition constant (Ki) was above 1000 nM.

`O=C(Nc1ccccc1Oc1ccccc1)N[C@H](Cc1ccccc1)C(=O)NCCCN1CCOCC1` returned a Ki above 10000 nM.

In turn, `CN(Cc1ccccc1)C(=O)N[C@@H](Cc1ccccc1)C(=O)NCCCN1CCOCC1` showed a Ki of 2000 nM.

Compound `O=C(Nc1ccc(OCc2ccc(C(F)(F)F)cc2)cc1)N[C@H](Cc1ccccc1)C(=O)NCCCN1CCOCC1` displayed an inhibitory constant (Ki) of 5000 nM.

Turning to `O=C(Nc1ccc(Oc2ccccc2)cc1)N[C@@H](Cc1ccccc1)C(=O)NCCCN1CCOCC1`, the inhibition constant (Ki) stood at 1000 nM.

`O=C(Nc1ccc(Oc2cccc(F)c2)cc1)N[C@H](Cc1ccccc1)C(=O)NCCCN1CCOCC1` returned an inhibitory constant (Ki) above 1000 nM.

Compound `CC(C)(Oc1ccc(C(F)(F)F)cc1)C(=O)N[C@@H](Cc1ccccc1)C(=O)NCCCN1CCOCC1` displayed a Ki above 1000 nM.

In the case of `O=C(Nc1ccc(Oc2ccc(C(F)(F)F)cc2)cc1)N[C@@H](Cc1ccccc1)C(=O)NCCCN1CCOCC1`, the inhibitory constant (Ki) is 250 nM.

The compound `CC(C)c1cccc(OC(C)(C)C(=O)N[C@@H](Cc2ccccc2)C(=O)NCCCN2CCOCC2)c1` came in with a Ki above 1000 nM.

`O=C(Nc1cccc(Oc2ccccc2)c1)N[C@@H](Cc1ccccc1)C(=O)NCCCN1CCOCC1`: the Ki was found to be 200 nM.

The compound `O=C(N[C@H](Cc1ccccc1)C(=O)NCCCN1CCOCC1)C(c1ccccc1)c1ccccc1` returned a Ki above 10000 nM.

`CC(C)(Oc1ccc(Cl)cc1)C(=O)N[C@@H](Cc1ccccc1)C(=O)NCCCN1CCOCC1` yielded a Ki of 1600 nM.

For `O=C(Nc1ccccc1Oc1ccccc1)N[C@@H](Cc1ccccc1)C(=O)NCCCN1CCOCC1`, the Ki came out at 5000 nM.

Compound `CN(C(=O)N[C@@H](Cc1ccccc1)C(=O)NCCCN1CCOCC1)c1cccc(Oc2cccc(F)c2)c1` showed an inhibitory constant (Ki) above 1000 nM.

`COc1ccc(Oc2ccc(NC(=O)N[C@H](Cc3ccccc3)C(=O)NCCCN3CCOCC3)cc2)cc1` gave a Ki above 1000 nM.

As to `CC(C)(Nc1ccccc1)C(=O)N[C@@H](Cc1ccccc1)C(=O)NCCCN1CCOCC1`, the Ki is above 3000 nM.

As for `CN(Cc1ccccc1)C(=O)N[C@H](Cc1ccccc1)C(=O)NCCCN1CCOCC1`, the Ki was 3000 nM.

Compound `O=C(N[C@H](Cc1ccccc1)C(=O)NCCCN1CCOCC1)c1ccccc1-c1ccccc1` came in with an inhibitory constant (Ki) of 3000 nM.

In the case of `CC(C)(Oc1cccc(-c2ccccc2)c1)C(=O)N[C@@H](Cc1ccccc1)C(=O)NCCCN1CCOCC1`, the Ki was 6300 nM.

The compound `COc1cc(COc2ccc(NC(=O)N[C@@H](Cc3ccccc3)C(=O)NCCCN3CCOCC3)cc2)cc(OC)c1` came in with a Ki of 200 nM.

Turning to `CC(C)c1cccc(OC(C)(C)C(=O)N[C@H](Cc2ccccc2)C(=O)NCCCN2CCOCC2)c1`, the Ki is above 1000 nM.

`O=C(Nc1ccc(Oc2ccc(C(F)(F)F)cc2)cc1)N[C@H](Cc1ccccc1)C(=O)NCCCN1CCOCC1` yielded a Ki above 1000 nM.

The compound `Cc1ccc(COc2ccc(NC(=O)N[C@H](Cc3ccccc3)C(=O)NCCCN3CCOCC3)cc2)cc1` returned a Ki above 1000 nM.

On to `O=C(NCCCN1CCOCC1)[C@@H](Cc1ccccc1)NC(=O)N1CCCC(O)(c2ccccc2)C1` (some centres undefined), for which the Ki was above 10000 nM.

In turn, `O=C(Nc1ccc(Oc2ccc(OC(F)(F)F)cc2)cc1)N[C@H](Cc1ccccc1)C(=O)NCCCN1CCOCC1` gave a Ki above 1000 nM.

Take `CC(C)(Oc1cccc(Cl)c1)C(=O)N[C@H](Cc1ccccc1)C(=O)NCCCN1CCOCC1`: the Ki stood at 310 nM.

In the case of `O=C(N[C@@H](Cc1ccccc1)C(=O)NCCCN1CCOCC1)c1ccccc1-c1ccccc1`, the Ki was above 10000 nM.

The compound `CC(C)c1ccc(Oc2ccc(NC(=O)N[C@H](Cc3ccccc3)C(=O)NCCCN3CCOCC3)cc2)cc1` displayed an inhibition constant Ki of 200 nM.

`CC(C)(Oc1cccc(Cl)c1)C(=O)N[C@@H](Cc1ccccc1)C(=O)NCCCN1CCOCC1` returned an inhibition constant Ki above 1000 nM.

Compound `O=C(Nc1ccc(OCc2ccc(C(F)(F)F)cc2)cc1)N[C@@H](Cc1ccccc1)C(=O)NCCCN1CCOCC1` yielded a Ki of 790 nM.

For `CC(C)(Oc1ccccc1-c1ccccc1)C(=O)N[C@@H](Cc1ccccc1)C(=O)NCCCN1CCOCC1`, the Ki was 3100 nM.

In turn, `CC(C)(Nc1ccccc1Oc1ccccc1)C(=O)N[C@H](Cc1ccccc1)C(=O)NCCCN1CCOCC1` yielded an inhibition constant (Ki) above 3000 nM.

Take `CC(C)(Oc1ccc(-c2ccccc2)cc1)C(=O)N[C@H](Cc1ccccc1)C(=O)NCCCN1CCOCC1`: the affinity, expressed as Ki, was 7900 nM.

In turn, `COc1ccc(Oc2ccc(NC(=O)N[C@@H](Cc3ccccc3)C(=O)NCCCN3CCOCC3)cc2)cc1` had a Ki of 310 nM.

In turn, `CN(C(=O)N[C@H](Cc1ccccc1)C(=O)NCCCN1CCOCC1)c1cccc(Oc2cccc(F)c2)c1` displayed a Ki above 1000 nM.

`CC(C)(Oc1ccc(F)cc1)C(=O)N[C@H](Cc1ccccc1)C(=O)NCCCN1CCOCC1` gave a Ki above 1000 nM.

`CC(C)c1ccc(Oc2ccc(NC(=O)N[C@@H](Cc3ccccc3)C(=O)NCCCN3CCOCC3)cc2)cc1` showed an inhibition constant Ki of 63 nM.

Compound `CC(C)(Oc1ccc(F)cc1)C(=O)N[C@@H](Cc1ccccc1)C(=O)NCCCN1CCOCC1` registered a Ki above 1000 nM.
